{
  "source": "patent US20210069151A1",
  "about": "“[…] PHARMACEUTICAL COMBINATION OF THE ACTIVE ENANTIOMER S-KETOROLAC TR[…] TRAMADOL CHLORHYDRATE” (priority 2018, published 2021)",
  "key": {"[1]": {"test_system": "uric acid-induced gouty arthritis pain in the rat", "assay": "pain-induced functional impairment model in the rat (PIFIR), antinociceptive effects", "format": "in vivo, male Wistar rats", "settings": "for Maximum efficacy (ABC: X ± E.E.): ABC of the FI % temporal curve over 4 h, at the dose that generates the maximum efficacy (S-ketorolac tromethamine 3.16 mg/kg, tramadol chlorhydrate 56.23 mg/kg); for Relative efficacy: compared to S-ketorolac tromethamine (= 1.0); for antinociceptive effects, dose dependence: single acute oral administration, evaluated for 4 hours, tramadol 5.6 to 56.2 mg/kg, S-ketorolac tromethamine 0.01 to 3.16 mg/kg", "excerpt": "In order to determine the antinociceptive effects, male Wistar rats weighing between 180 and 200 g were employed. These were handled in accordance with the Official Mexican Norm (NOM-062-ZOO-1999) and in accordance with the general principles of lab animal care (NIH publication #85-23, revised in 1985). The minimum number of test animals were used (6 animals per experimental point for antinociceptive effects, motor coordination, and gastrointestinal damage, and 10 animals per experimental point for adverse effects: lethal dose 50). The animals were kept in a room with alternate cycles of light/darkness. Twelve hours before the antinociceptive tests, the food was withdrawn, and they only had free access to water. All of these experiments were conducted during the light phase.\nThe analgesics were dissolved or suspended in carboxymethyl cellulose at 0.5% and administered orally in a volume of 4 ml/kg.\nThis methodology is commonly known as “pain-induced functional impairment model in the rat” (PIFIR). This methodology was used to determine and compare the antinociceptive effects of these analgesics.\nThe methodology of the PIFIR experimental procedure is briefly described below: The animals were anesthetized in an anesthesia chamber saturated with isoflurane vapors. The gouty arthritis was induced by applying an intra-articular injection (i.art.) with 0.05 ml of uric acid suspended in mineral oil (at 30%) in the right hind limb, exactly in the femur-tibia-patella joint.\nA 1 ml glass syringe with a No. 22, 4 mm long needle was used for the i.art. injection. Immediately afterward, an electrode was fixed on each hind limb in the middle of the plantar calluses. After the rats recovered from the anesthesia, they were placed in a 30 cm diameter stainless steel rotating cylinder. The cylinder was rotated at 4 rpm, forcing the rats to walk for 2 minutes every half hour for a total of 6.5 hours (2.5 h to generate the gouty arthritis and 4 h to evaluate the antinociceptive effects of the analgesics). The variable measured was the time of contact of each one of the hind limbs of the rats in the cylinder.\nWhen the electrode and the cylinder make contact, a circuit closes, and the relationship between the time of contact of the extremity to which the uric acid was administered as compared to the one to which uric acid was not administered was registered in a computer. The percentage functionality indexes (FI %) are calculated with these variables. Once the total dysfunction (FI=0%) was produced due to the effect of the uric acid, the corresponding doses of each analgesic were administered individually or in combination.\nThe medium and standard error of the evaluation of the antinociceptive effects are presented in all of the graphics as from time “0,” which is the moment at which the arthritis is completely developed in the rat and is the precise moment of the administration of tramadol chlorhydrate and S-ketorolac tromethamine.\nWith the administration of these doses, the complete doses-responses of S-ketorolac tromethamine and tramadol chlorhydrate were plotted separately in order to perform a comparative analysis for efficacy and potency. In the case of tramadol chlorhydrate, the curves were obtained through a single and acute 4-hour administration in doses with algorithmic increases (of 5.6 to 56.2 mg/kg), (FIG. 1). The S-ketorolac tromethamine temporal curves were obtained through acute administration evaluated for 4 hours in doses with algorithmic increases (from 0.01 to 3.16 mg/kg).\nAfter this, 24 different combinations of S-ketorolac tromethamine and tramadol chlorhydrate were analyzed in order to detect the type of interaction and the most significant combinations due to the degree of efficacy or the degree of antinociceptive potency."}, "[2]": {"settings": "background statement, cited from earlier work"}, "[3]": {"assay": "pharmacological / analgesic potency relative to comparators (no method given)", "format": "in vivo"}},
  "note": "Entries after “also recorded” stand apart in the source; their conditions may differ.",
  "data": [
    {"smiles": "O=C(c1ccccc1)c1ccc2n1CC[C@@H]2C(=O)O", "note": "[S-ketorolac tromethamine, 2-amino-2-hydroximethyl-1,3 propanediol (1:1) S-(−)-5-benzoyl-2,3-dihydro-1H-pyrrolizine-1-carboxylate]", "values": [
      {"measurement": "Maximum efficacy (ABC: X ± E.E.)", "setting": "[1]; po", "value": "310.5 ± 13.5", "unit": "au"},
      {"measurement": "Relative efficacy", "setting": "[1]; PIFIR, po", "value": 1.0},
      {"measurement": "antinociceptive effects, dose dependence", "setting": "[1]", "value": "doses-dependent antinociceptive effects; also recorded: antinociceptive effects that are dependent on the gouty arthritis-type pain dose"},
      {"measurement": "potency ratio of the S (−) enantiomer", "setting": "[2]; comparator not clearly printed", "value": "approximately 60 times"},
      {"measurement": "analgesic effect relative to the racemic form", "setting": "[2]", "value": "almost double that of the racemic form"},
      {"measurement": "potency relative to AA", "setting": "[3]; times more potent than AA", "value": 1037, "unit": "times"},
      {"measurement": "potency relative to morphine", "setting": "[3]; times more potent than morphine", "value": 82, "unit": "times"},
      {"measurement": "potency relative to rac-ketorolac", "setting": "[3]; times more potent than rac-ketorolac", "value": 3.3, "unit": "times"}
    ]},
    {"smiles": "COc1cccc([C@@]2(O)CCCC[C@@H]2CN(C)C)c1.Cl", "note": "(relative stereo) [Tramadol chlorhydrate, (1R,2R)-rel-2-[(dimethylamino)methyl]-1-(3-methoxyphenyl)cyclohexanol]", "values": [
      {"measurement": "Maximum efficacy (ABC: X ± E.E.)", "setting": "[1]; po", "value": "216.7 ± 19.1", "unit": "au"},
      {"measurement": "Maximum efficacy (ABC: X ± E.E.)", "setting": "[1]; po, listed as tramadol chlorhydrate", "value": 216.66, "unit": "au"},
      {"measurement": "efficacy relative to that exhibited by S-ketorolac tromethamine", "setting": "[1]; PIFIR, po", "value": 70, "unit": "%"},
      {"measurement": "Relative efficacy", "setting": "[1]; PIFIR, po", "value": 0.70},
      {"measurement": "antinociceptive effects, dose dependence", "setting": "[1]", "value": "doses-dependent antinociceptive effects; also recorded: antinociceptive effects that are dependent on the gouty arthritis-type pain dose"}
    ]}
  ]
}
